Measured values as given in ChEMBL document CHEMBL1127117 (Bioorg Med Chem Lett, 1993).
Activity calls are given as the source filed them. The rule behind the calls is not given here.

test system: Mus musculus; assay: Compound was tested for inhibitory activity in oral mouse cholesterol biosynthesis assay at the dose of 6 mg/Kg; format: functional

| SMILES | inhibition in vivo at 6 mg/kg |
| --- | --- |
| C=C(CCC12OC(C(=O)OCCC(C)C)C(O)(C(=O)O)C(C(=O)OCOC(C)=O)(O1)[C@H](OC(=O)/C=C/[C@@H](C)C[C@@H](C)CC)[C@H]2O)[C@@H](OC(C)=O)[C@H](C)Cc1ccccc1 (some centres undefined) | 13% |

test system: Mus musculus; assay: Compound was tested for inhibitory activity in oral mouse cholesterol biosynthesis assay at the dose of 24 mg/Kg; NA means not active; format: functional, organism-based

| SMILES | inhibition |
| --- | --- |
| C=C(CCC12OC(C(=O)OCCC(C)C)C(O)(C(=O)OCC(=O)OC(C)(C)C)C(C(=O)O)(O1)[C@H](OC(=O)/C=C/[C@@H](C)C[C@@H](C)CC)[C@H]2O)[C@@H](OC(C)=O)[C@H](C)Cc1ccccc1 (some centres undefined) | inactive |
| C=C(CCC12OC(C(=O)OCCC(C)C)C(O)(C(=O)O)C(C(=O)OC)(O1)[C@H](OC(=O)/C=C/[C@@H](C)C[C@@H](C)CC)[C@H]2O)[C@@H](OC(C)=O)[C@H](C)Cc1ccccc1 (some centres undefined) | inactive |
| C=C(CCC12OC(C(=O)OCCC(C)C)C(O)(C(=O)O)C(C(=O)OCc3ccccc3)(O1)[C@H](OC(=O)/C=C/[C@@H](C)C[C@@H](C)CC)[C@H]2O)[C@@H](OC(C)=O)[C@H](C)Cc1ccccc1 (some centres undefined) | inactive |
| C=CCOC(=O)C12OC(CCC(=C)[C@@H](OC(C)=O)[C@H](C)Cc3ccccc3)(OC(C(=O)OCCC(C)C)C1(O)C(=O)O)[C@H](O)[C@H]2OC(=O)/C=C/[C@@H](C)C[C@@H](C)CC (some centres undefined) | inactive |

test system: Mus musculus; assay: Compound was tested for inhibitory activity in oral mouse cholesterol biosynthesis assay at the dose of 24 mg/Kg; format: functional

| SMILES | inhibition in vivo at 24 mg/kg |
| --- | --- |
| C=C(CCC12OC(C(=O)OCCC(C)C)C(O)(C(=O)OCC(=O)N(C)C)C(C(=O)O)(O1)[C@H](OC(=O)/C=C/[C@@H](C)C[C@@H](C)CC)[C@H]2O)[C@@H](OC(C)=O)[C@H](C)Cc1ccccc1 (some centres undefined) | 12% |
| C=C(CCC12OC(C(=O)OCCC(C)C)C(O)(C(=O)OCc3ccccc3)C(C(=O)O)(O1)[C@H](OC(=O)/C=C/[C@@H](C)C[C@@H](C)CC)[C@H]2O)[C@@H](OC(C)=O)[C@H](C)Cc1ccccc1 (some centres undefined) | 50% |
| C=C(CCC12OC(C(=O)OCCC(C)C)C(O)(C(=O)OCC)C(C(=O)O)(O1)[C@H](OC(=O)/C=C/[C@@H](C)C[C@@H](C)CC)[C@H]2O)[C@@H](OC(C)=O)[C@H](C)Cc1ccccc1 (some centres undefined) | 59% |
| C=C(CCC12OC(C(=O)OCCC(C)C)C(O)(C(=O)OCCOC)C(C(=O)O)(O1)[C@H](OC(=O)/C=C/[C@@H](C)C[C@@H](C)CC)[C@H]2O)[C@@H](OC(C)=O)[C@H](C)Cc1ccccc1 (some centres undefined) | 55% |
| C=C(CCC12OC(C(=O)OCCC(C)C)C(O)(C(=O)OCC(=O)c3ccc(Br)cc3)C(C(=O)O)(O1)[C@H](OC(=O)/C=C/[C@@H](C)C[C@@H](C)CC)[C@H]2O)[C@@H](OC(C)=O)[C@H](C)Cc1ccccc1 (some centres undefined) | 7% |
| C=C(CCC12OC(C(=O)OCCC(C)C)C(O)(C(=O)OCCCCCCCC)C(C(=O)O)(O1)[C@H](OC(=O)/C=C/[C@@H](C)C[C@@H](C)CC)[C@H]2O)[C@@H](OC(C)=O)[C@H](C)Cc1ccccc1 (some centres undefined) | 5% |
| C=C(CCC12OC(C(=O)OCCC(C)C)C(O)(C(=O)OCC(=O)N(CC)CC)C(C(=O)O)(O1)[C@H](OC(=O)/C=C/[C@@H](C)C[C@@H](C)CC)[C@H]2O)[C@@H](OC(C)=O)[C@H](C)Cc1ccccc1 (some centres undefined) | 15% |
| C=CCOC(=O)C1(O)C(C(=O)OCCC(C)C)OC2(CCC(=C)[C@@H](OC(C)=O)[C@H](C)Cc3ccccc3)OC1(C(=O)O)[C@H](OC(=O)/C=C/[C@@H](C)C[C@@H](C)CC)[C@H]2O (some centres undefined) | 38% |
| C=C(CCC12OC(C(=O)OCCC(C)C)C(O)(C(=O)OCC(=O)OC)C(C(=O)O)(O1)[C@H](OC(=O)/C=C/[C@@H](C)C[C@@H](C)CC)[C@H]2O)[C@@H](OC(C)=O)[C@H](C)Cc1ccccc1 (some centres undefined) | 43% |

organism: Mus musculus; assay: Compound was tested for inhibitory activity in oral mouse cholesterol biosynthesis assay; format: functional

| SMILES | ED50 |
| --- | --- |
| C=C(CCC12OC(C(=O)OCCC(C)C)C(O)(C(=O)OCOC(=O)C(C)(C)C)C(C(=O)O)(O1)[C@H](OC(=O)/C=C/[C@@H](C)C[C@@H](C)CC)[C@H]2O)[C@@H](OC(C)=O)[C@H](C)Cc1ccccc1 (some centres undefined) | 9 mg/kg |
| C=C(CCC12OC(C(=O)O)C(O)(C(=O)O)C(C(=O)O)(O1)[C@H](OC(=O)/C=C/[C@@H](C)C[C@@H](C)CC)[C@H]2O)[C@@H](OC(C)=O)[C@H](C)Cc1ccccc1 (some centres undefined) [ZARAGOZIC ACID A] | 100 mg/kg |
| C=C(CCC12OC(C(=O)OCCC(C)C)C(O)(C(=O)OCOC(C)=O)C(C(=O)O)(O1)[C@H](OC(=O)/C=C/[C@@H](C)C[C@@H](C)CC)[C@H]2O)[C@@H](OC(C)=O)[C@H](C)Cc1ccccc1 (some centres undefined) | 6 mg/kg |
| C=C(CCC12OC(C(=O)OCCC(C)C)C(O)(C(=O)OC)C(C(=O)O)(O1)[C@H](OC(=O)/C=C/[C@@H](C)C[C@@H](C)CC)[C@H]2O)[C@@H](OC(C)=O)[C@H](C)Cc1ccccc1 (some centres undefined) | 20 mg/kg |

test system: Mus musculus; assay: Compound was tested for inhibitory activity in oral mouse cholesterol biosynthesis assay at the dose of 40 mg/Kg; format: functional

| SMILES | inhibition in vivo at 40 mg/kg |
| --- | --- |
| C=C(CCC12OC(C(=O)OCCC(C)C)C(O)(C(=O)O)C(C(=O)O)(O1)[C@H](OC(=O)/C=C/[C@@H](C)C[C@@H](C)CC)[C@H]2O)[C@@H](OC(C)=O)[C@H](C)Cc1ccccc1 (some centres undefined) | 61% |
